In brackets after ≈: the same amount, converted by molar mass. Read-outs that look alike come from different tables or passages of the source.
Legend:
[1] = tested on: Actinomyces naeslundii PK29 and Streptococcus sanguis G9B; assay: Bacterial coaggregation assay; assay type: cell-based; details: for inhibition of coaggregation between A. naeslundii and S. sanguis: result in words
Method: A bacterial coaggregation assay was used to determine the ability of various amino sugars to interfere with lectin-mediated binding among various bacterial species. For instance, many Actinomyces naeslundii strains coaggregate with Streptococcus sanguis as a result of binding between a lectin produced by the A. naeslundii cells and β-galactose-containing structures on the surface of the streptococci. For the present assay, A. naeslundii PK29 and S. sanguis G9B were cultured overnight in a medium containing 2.5% tryptone, 1.5% yeast extract, 0.1% magnesium sulfate, and 1.0% fructose. The cells were then washed twice in a 1.0 mM potassium phosphate buffer (pH = 6.8) containing 1.0 mM calcium chloride, 0.1 mM magnesium chloride, and 50.0 mM potassium chloride (buffered KCl), after which they were resuspended in buffered KCl at an optical density (540 nm) of 1.5. The coaggregations were performed by combining 0.5 ml of each bacterial suspension with 0.2 ml of 5.0% bovine serum albumin (BSA) and 0.8 ml of an appropriate concentration of a targeted anti-plaque agent in 3.0 ml capped polystyrene cuvettes. The cuvettes (path length 1 cm) were gently inverted at room temperature, and the optical density (540 nm) was determined as a function of time (2.0 min intervals; 20 min). The instrument employed to measure optical density was a variable wavelength spectrophotometer (Gilson Response^(R) Spectrophotometer, bought from Gilson).
The activity of a tested compound was expressed as % inhibition relative to buffer controls (i.e., % inhibition = [1 - change in optical density (inhibitor)]/ change in optical density [control]) x 100 [formula] .
The ability of various aldobionamide compounds (prepared as described in Example 1) to target to β-galactose-specific binding proteins on A. naeslundii and thus to interfere with coaggregation interactions between A. naeslundii and S. sanquis was investigated. Coaggregation of Actinomyces naeslundii PK29 and Streptococcus sanguis G9B was performed as described in the Methods section (Bacterial Coaggregation Assay) above. % Inhibition was calculated as 1.0 - the change in optical density (540 nm) in the sample containing compound tested/the change in optical density in the coaggregation buffer control. The inhibitory activity of the antiplaque agents within the scope of the invention was compared to the inhibitory activity of lactobionic acid and N-alkyl gluconamides, which are not within the scope of the invention. The gluconamides were prepared analogously to N-alkyl lactobionamides from glucono-δ-lactone (Sigma Chemicals) and the requisite aliphatic amine.

[2] = tested on: several species of oral bacteria; assay: MIC assays on several species of oral bacteria (stated in words); assay type: cell-based; details: result in words
Method: (§1) The antimicrobial activity of the targeted agents was assessed by determining the minimum inhibitory concentration (MIC). Pure cultures of various strains of oral bacterial species as indicated in Table 3 were combined with serial dilutions of the targeted agents in beef heart infusion broth (BHI); starting bacterial concentrations were approximately 1.0 x 10E6 colony forming units (CFU) per ml. The mixtures were incubated aerobically at 37 degrees C and the optical density (540 nm, path length 1cm) of the cultures was measured at 0.0, 24.0 and 48.0 hr using Bausch and Lomb Spec 20 variable wavelength spectrophotometer.

[3] = tested on: Porphyromonas gingivalis; assay: Antimicrobial activity determination (MIC); assay type: cell-based; details: read-out: Minimimum Inhibitory Concentrations
Method: as §1

[4] = tested on: Candida albicans; assay: Antimicrobial activity determination (MIC); assay type: cell-based; details: for MIC: read-out: Minimimum Inhibitory Concentrations
Method: as §1

[5] = tested on: Streptococcus sanguis; assay: Antimicrobial activity determination (MIC); assay type: cell-based; details: for MIC: Streptococcus, read-out: Minimimum Inhibitory Concentrations
Method: as §1

[6] = tested on: Neisseria subflava; assay: Antimicrobial activity determination (MIC); assay type: cell-based; details: for MIC: read-out: Minimimum Inhibitory Concentrations
Method: as §1

[7] = tested on: Streptococcus sobrinus; assay: Antimicrobial activity determination (MIC); assay type: cell-based; details: for MIC: read-out: Minimimum Inhibitory Concentrations
Method: as §1

[8] = tested on: Prevotella intermedius; assay: Antimicrobial activity determination (MIC); assay type: cell-based; details: read-out: Minimimum Inhibitory Concentrations
Method: as §1

[9] = tested on: Actinomyces naeslundii; assay: Antimicrobial activity determination (MIC); assay type: cell-based; details: for MIC: read-out: Minimimum Inhibitory Concentrations
Method: as §1

[10] = tested on: Veillonella dispar; assay: Antimicrobial activity determination (MIC); assay type: cell-based; details: read-out: Minimimum Inhibitory Concentrations
Method: as §1

[11] = Krafft point of a 1% dispersion in water; assay type: physicochemical; details: 1% dispersion of the surfactant in water
Method: The temperature at and above which surfactants begin to form micelles instead of precipitates is referred to as Krafft point (Tk) and at this temperature the solubility of a surfactant becomes equal to its CMC.
Krafft point was measured by preparing a 1% dispersion of the surfactant in water. If the surfactant was soluble at room temperature, the solution was cooled to 0°C. […] If it precipitated out, the solution was slowly warmed with stirring in a water bath. The temperature at which the precipitate dissolved was determined to be the Krafft point.
If the Krafft point was above room temperature, the solution was first heated rapidly to dissolve all the surfactant. It was then cooled until precipitation occurred, and was then slowly warmed to determine the Krafft point described above.

[12] = BHI broth, aerobic, 37 degrees C
[13] = Streptococcus sanguis, BHI broth, aerobic, 37 degrees C
[14] = Prevotella intermedius, BHI broth, aerobic, 37 degrees C

Compound | MIC [3, 12] [µg/mL] | MIC [4, 12] [µg/mL] | MIC [5, 13] [µg/mL] | MIC [6, 12] [µg/mL] | MIC [7, 12] [µg/mL] | MIC [8, 14] [µg/mL] | MIC [9, 12] [µg/mL] | MIC [10, 12] [µg/mL] | Minimimum Inhibitory Concentrations [5, 13] [% w/v] | Minimimum Inhibitory Concentrations [7, 12] [% w/v] | Minimimum Inhibitory Concentrations [9, 12] [% w/v] | further results
CCCCCCCCCCCCCCN.Cl [tetradecyl ammonium hydrochloride, reference compound] |  |  |  |  |  |  |  |  |  |  |  | inhibition of coaggregation between A. naeslundii and S. sanguis [1]: inhibited coaggregation; anti-microbial activity [2]: had antibacterial activity
CCCCCCCCCCCCCCCCNC(=O)[C@H](O)[C@@H](O)[C@H](O[C@@H]1O[C@H](CO)[C@H](O)[C@H](O)[C@H]1O)[C@H](O)CO [Hexadecyl lactobionamide, N-hexadecyl lactobionamide] | > 500 | 1000 (≈ 1720 µM) | 125 (≈ 215 µM) | 1000 (≈ 1720 µM) | 1000 (≈ 1720 µM) | > 500 | 60 (≈ 103 µM) | > 500 |  |  |  | 
CCCCCCCCNC(=O)[C@H](O)[C@@H](O)[C@H](O[C@@H]1O[C@H](CO)[C@H](O)[C@H](O)[C@H]1O)[C@H](O)CO [Octyl lactobionamide, N-octyl lactobionamide] | > 1000 | > 1000 | > 1000 | > 1000 | > 5000 | > 1000 | > 5000 | > 1000 |  |  |  | 
CCCCCCCCCCCCCCNC(=O)[C@H](O)[C@@H](O)[C@H](O[C@@H]1O[C@H](CO)[C@H](O)[C@H](O)[C@H]1O)[C@H](O)CO [Tetradecyl lactobionamide, N-tetradecyl lactobionamide] |  | 30 (≈ 54.2 µM) | 30 (≈ 54.2 µM) | 60 (≈ 108 µM) | 125 (≈ 226 µM) | 8 (≈ 14.4 µM) | 15 (≈ 27.1 µM) | < 8 |  |  |  | Krafft Point [11]: 46 °C
O=C(O)[C@H](O)[C@@H](O)[C@H](O[C@@H]1O[C@H](CO)[C@H](O)[C@H](O)[C@H]1O)[C@H](O)CO [Lactobionic acid, reference compound] |  |  |  |  |  |  |  |  | >0.5 | >0.5 | >0.5 | 
CCCCCNC(=O)[C@H](O)[C@@H](O)[C@H](O[C@@H]1O[C@H](CO)[C@H](O)[C@H](O)[C@H]1O)[C@H](O)CO [Pentyl lactobionmamide, N-pentyl lactobionamide] | > 1000 | > 1000 | > 1000 | > 1000 | > 5000 | > 1000 | > 5000 | > 1000 |  |  |  | 
CCCCCCCCCCCCOS(=O)(=O)[O-].[Na+] [Sodium dodecyl sulfate, reference compound] |  |  |  |  |  |  |  |  |  |  |  | MIC [3]: 2 µg/mL; MIC [4]: 60 µg/mL; MIC [5]: 15 µg/mL; MIC [6]: 8 µg/mL; MIC [7]: 60 µg/mL; MIC ([8]; Prevotella): 16 µg/mL; MIC [9]: 8 µg/mL; MIC [10]: 60 µg/mL
CCCCCCCCCCNC(=O)[C@H](O)[C@@H](O)[C@H](O)[C@H](O)CO [Decylgluconamide, reference compound] |  |  | > 5000 |  | > 5000 |  | > 5000 |  |  |  |  | 
O=C(O)[C@H](O)[C@@H](O)[C@H](O[C@@H]1O[C@H](CO)[C@H](O)[C@H](O)[C@H]1O)[C@H](O)CO [Dodecyl ammonium lactobionate, Dodecylammonium lactobionate] |  |  |  | 125 |  | 16 |  | 16 | 0.006 | 0.003 | 0.003 | anti-microbial activity [2]: significant anti-microbial activity
CCCCCCCCCCCCOC(=O)CCNC(=O)[C@H](O)[C@@H](O)[C@H](O[C@@H]1O[C@H](CO)[C@H](O)[C@H](O)[C@H]1O)[C@H](O)CO [Dodecyl-B-alanyl-lactobionamide, N-lactobionyl dodecyl β-alanate] |  | 500 (≈ 837 µM) | 125 (≈ 209 µM) | 500 (≈ 837 µM) | 1000 (≈ 1670 µM) |  | 125 (≈ 209 µM) |  |  |  |  | 
CCCNC(=O)[C@H](O)[C@@H](O)[C@H](O[C@@H]1O[C@H](CO)[C@H](O)[C@H](O)[C@H]1O)[C@H](O)CO [Propyl lactobionamide, N-propyl lactobionamide] | > 1000 | > 1000 | > 1000 | > 1000 | > 5000 | > 1000 | > 5000 | > 1000 |  |  |  | 
O=C(O)[C@H](O)[C@@H](O)[C@H](O[C@@H]1O[C@H](CO)[C@H](O)[C@H](O)[C@H]1O)[C@H](O)CO [Tetradecyl ammonium Lactobionate, Tetradecylammonium lactobionate] |  | 120 |  |  |  |  |  |  | 0.0016 | 0.0125 | 0.006 | inhibition at 500 µM ([1]; Actinomyces naeslundii, 0.5 mMol/L, coaggregation of A. naeslundii PK29 and S. sanguis G9B, relative to buffer control, read-out: Percent Inhibition): 0%; inhibition at 700 µM ([1]; Actinomyces naeslundii, 0.7 mMol/L, coaggregation of A. naeslundii PK29 and S. sanguis G9B, relative to buffer control, read-out: Percent Inhibition): 11%; inhibition at 900 µM ([1]; Actinomyces naeslundii, 0.9 mMol/L, coaggregation of A. naeslundii PK29 and S. sanguis G9B, relative to buffer control, read-out: Percent Inhibition): 66%; inhibition at 1400 µM ([1]; Actinomyces naeslundii, 1.4 mMol/L, coaggregation of A. naeslundii PK29 and S. sanguis G9B, relative to buffer control, read-out: Percent Inhibition): 99%; inhibition at 1800 µM ([1]; Actinomyces naeslundii, 1.8 mMol/L, coaggregation of A. naeslundii PK29 and S. sanguis G9B, relative to buffer control, read-out: Percent Inhibition): 100%; inhibition of coaggregation between A. naeslundii and S. sanguis [1]: effective inhibitor of coaggregation; anti-microbial activity [2]: significant anti-microbial activity
Tetradecyl-glycyl-lactobionamide |  |  |  |  |  |  |  |  | 0.003 | 0.05 | 0.0008 | Minimimum Inhibitory Concentrations [4, 12]: 0.05 % w/v; Minimimum Inhibitory Concentrations [6, 12]: 0.05 % w/v
